Assay results from EP4772520A1, “NOVEL PRODRUG-TYPE ANTICANCER AGENT TARGETING CANCER-SPECIFIC ENZYME ACTIVITY” (priority 2023, dated 2025).
Entries after “also recorded” stand apart in the source; their conditions may differ.

Experiments:
[1] = Evaluation of locomotion after administration of drug; format: in vivo; details: intravenous administration of 40 mg/kg, n = 4, 15 minutes from 1 minute after administration
Description: The momentum after drug administration was compared (n = 4).
Fig. 22 illustrates results of locomotion evaluation after drug administration. a of Fig. 22 illustrates the head movement distance for 15 minutes from 1 minute after administration in each group. The drug is administered intravenously at 40 mg/kg (n = 4). b of Fig. 22 illustrates an example of a movement trajectory for 15 minutes from 1 minute after administration in each group. c of Fig. 22 illustrates an example of a movement distance for each time from 1 minute after administration in each group.

[2] = test system: lung adenocarcinoma cell A549; experiment: Cytotoxicity test by MTT assay method (A549); format: cell-based; details: for IC50: Homo sapiens, A549, 72 h, read-out: IC50 value
[3] = test system: luciferase-expressing A549 cells; experiment: Therapeutic experiment 1 in A549 lung cancer orthotopic transplantation model; format: in vivo, mice; details: 40 mg/kg i.v., 3 times a week; for tumor suppression effect (luciferin/luciferase chemiluminescence): vs Vehicle
Description: The administration form was intravenous administration (i.v.). The dose was 40 mg/kg, and administration was performed 3 times a week for 4 times. The tumor burden was determined by evaluating the luciferin/luciferase chemiluminescence value. The endpoint was the time point of significant body weight loss (20% loss).
A specific procedure of the therapeutic experiment is shown below. • (1) Model mice were created by the following operation using BALB/cAJcl-nu/nu (7 weeks old). The skin of the chest was incised, and the skin was subcutaneously detached, then luciferase-expressing A549 cells 2 × 10^7 cells/mL (50 µL, 5% Matrigel) was injected from the intercostal pleura to the left lung. After injection, the skin was sutured. • (2) After 17 days, the formation of cancer was confirmed by luciferin/luciferase chemiluminescence, and the intravenous administration of the drug was started. The drug was prepared by dissolving a 200 mM of DMSO stock in PBS, and administered in a total amount of 100 µL. 3 mg (200 µL) of luciferin was administered by intraperitoneal administration, and anesthetized with isoflurane. Thereafter, the chemiluminescent value at 20 minutes after administration was measured by an in vivo imaging device. • (3) On the day of evaluation, the tumor burden was evaluated by the body weight and the luciferin/luciferase chemiluminescence.

[4] = test system: lung squamous carcinomas cell H226; experiment: Cytotoxicity test by MTT assay method (H226 cells); format: cell-based; details: for cytotoxicity in the presence of inhibitor: H226; for IC50: Homo sapiens, NCI-H226, 72 h, read-out: IC50 value
[5] = target: T1, human AChE (Homo sapiens, UniProt P22303); experiment: Evaluation of inhibitory activity on acetylcholinesterase (AChE); format: biochemical; details: for AChE inhibitory activity: in the presence of 10 µM of each drug; for IC50: read-out: IC50 value for AChE inhibition, 60 min value
T1 construct: purchased AnaSpec, Inc
T1 sequence (P22303 32-614): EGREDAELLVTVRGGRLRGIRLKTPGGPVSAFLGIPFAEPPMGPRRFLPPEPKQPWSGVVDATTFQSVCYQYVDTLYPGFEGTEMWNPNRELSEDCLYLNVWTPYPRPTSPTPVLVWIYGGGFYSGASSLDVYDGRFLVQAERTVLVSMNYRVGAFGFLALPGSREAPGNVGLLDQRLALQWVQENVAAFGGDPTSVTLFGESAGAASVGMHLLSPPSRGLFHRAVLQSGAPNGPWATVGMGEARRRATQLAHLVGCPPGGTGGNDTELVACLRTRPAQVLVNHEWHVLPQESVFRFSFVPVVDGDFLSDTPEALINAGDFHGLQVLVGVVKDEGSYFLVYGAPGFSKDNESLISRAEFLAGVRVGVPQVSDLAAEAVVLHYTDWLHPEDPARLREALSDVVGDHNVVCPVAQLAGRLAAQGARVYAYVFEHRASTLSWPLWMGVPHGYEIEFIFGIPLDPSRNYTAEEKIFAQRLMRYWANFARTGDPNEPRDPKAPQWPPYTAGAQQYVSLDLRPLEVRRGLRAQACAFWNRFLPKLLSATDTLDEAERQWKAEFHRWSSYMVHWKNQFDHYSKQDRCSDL
Description: The procedure of the specific inhibition test is shown below. • (1) A test drug at each concentration was added to a 96 well plate, and acetylcholine, an AChE substrate, and an AChE purified enzyme were added according to a protocol, using SensoLyte (registered trademark) 520 Acetylcholine esterase Activity Assay Kit Fluorometric (AnaSpec, Inc.). Neostigmine bromide known as an AChE inhibitor was used as […]. • (2) The fluorescence value at 520 nm was measured, and the IC50 value was calculated.

[6] = test system: luciferase-expressing SKOV3 cells; experiment: Therapeutic experiment of SN38-βGal in SKOV3 ovarian cancer peritoneal dissemination model; format: in vivo, mice; details: for body weight: 20 mg/kg i.p. 5 times a week; for tumor proliferation suppression effect: 20 mg/kg i.p. 5 times a week over 4 weeks and 3 days, vs Vehicle, 20 mg/kg
Description: Next, the therapeutic effect of SN38-βGal in the ovarian cancer peritoneal dissemination model was verified. Vehicle (DMSO) group (n = 5), SN38-βGal, and 20 mg/kg (n = 4) were set, and 20 mg/kg was intraperitoneally administered 5 times a week (2 days off) over 4 weeks and 3 days.
A specific procedure of the therapeutic experiment is shown below. • (1) 1.5 × 10^6 luciferase-expressing SKOV3 cells were intraperitoneally administered to BALB/cAJcl-nu/nu (7 weeks old). • (2) After one week, the formation of cancer was confirmed by luciferin/luciferase chemiluminescence. • (3) Intraperitoneal administration of the drug was started in a cycle in which the drug was administered to the mice in which formation of cancer was confirmed for five consecutive days within 1 week and the drug was withdrawn for 2 days. The drug was prepared by dissolving a 100 mM of DMSO stock in PBS, and administered in a total amount of 100 µL. • (4) On the evaluation day, 3 mg of luciferin potassium dissolved in 200 µL of PBS was intraperitoneally administered, and anesthetized with isoflurane, and then the luminescence value 15 minutes after the administration was measured with an in vivo imaging device. At the same time, the body weight was measured.
According to the same protocol as that of the first therapeutic experiment, Vehicle (DMSO) group (n = 5), SN38-βGal, and 20 mg/kg (n = 4) were set, and 20 mg/kg was intraperitoneally administered 5 times a week (2 days off) over 4 weeks and 3 days.

[7] = test system: lung squamous carcinomas cell H226; experiment: Tumor proliferation suppression test in H226 subcutaneous tumor model; format: in vivo, mice; details: 200 mg/kg i.v. 3 times a week for 2 weeks, n = 5, vs Vehicle
Description: 200 mg/kg of SN38-βGlcNAc was intravenously administered 3 times a week for 2 weeks to subcutaneous tumor model mice of lung squamous carcinomas cell H226, and the tumor proliferation suppression effect was evaluated. The Vehicle (DMSO administration) group and the SN38-βGlcNAc administration group were n = 5, respectively.
The drug SN38-βGlcNAc was prepared by dissolving a 200 mM of DMSO stock in PBS, and was intravenously administered from the tail vein 3 times a week for 2 weeks at a dose of 200 mg/kg with a total amount of 100 µL. • (3) The body weight was measured on the day of evaluation, and the tumor volume was evaluated with a vernier caliper. • (4) Tumors were resected on day 19 from the start of dosing and their sizes were compared.

SMILES	locomotion after drug administration [1]	IC50 [2] [µM]	body weight [3]	tumor suppression effect (luciferin/luciferase chemiluminescence) [3]	cytotoxicity in the presence of inhibitor ([4]; inhibitor of β-galactosidase, N-(n-nonyl) deoxygalactonoijirimycin, 40 µM)	IC50 [4] [µM]	AChE inhibitory activity [5]	IC50 [5] [µM]	body weight ([6]; first experiment)	tumor proliferation suppression effect ([6]; first experiment)	body weight ([6]; second experiment)	tumor proliferation suppression effect ([6]; second experiment)	cytotoxicity in the presence of inhibitor ([2]; A549, inhibitor PUGNAc of β-hexosaminidase)	tumor proliferation suppression effect (tumor volume) [7]	cytotoxicity in the presence of inhibitor ([4]; 40 µM of inhibitor of β-hexosaminidase, PUGNAc)
CCc1c2c(nc3ccc(O[C@@H]4O[C@H](CO)[C@H](O)[C@H](O)[C@H]4O)cc13)-c1cc3c(c(=O)n1C2)COC(=O)[C@]3(O)CC [SN38-βGal]	these decreases in the locomotion were hardly observed	3.38	the slight body weight loss was found, but it was not remarkable as in CPT-11	tended to suppress tumor growth as in the CPT-11 administration group	cytotoxicity was significantly reduced	1.39	did not inhibit AChE activity in this concentration range	1560	no significant body weight loss was found	the tumor proliferation suppression effect was suggested again; also recorded: significantly suppressed tumor growth	no significant body weight loss was found	the tumor proliferation suppression effect was confirmed again; also recorded: significantly suppressed tumor growth			
CCc1c2c(nc3ccc(O[C@@H]4O[C@H](CO)[C@@H](O)[C@H](O)[C@H]4NC(C)=O)cc13)-c1cc3c(c(=O)n1C2)COC(=O)[C@]3(O)CC [SN38-βGlcNAc]	these decreases in the locomotion were hardly observed	1.35	the slight body weight loss was found, but it was not remarkable as in CPT-11	tended to suppress tumor growth as in the CPT-11 administration group		1.5	did not inhibit AChE activity in this concentration range	1440					cytotoxicity was significantly reduced	the tumor growth was almost completely suppressed	cytotoxicity was significantly reduced
